Series [1] is described as follows: RP-TLC determination of chromatographic lipophilicity parameter RMW (Soczewiński–Wachtmeister extrapolation to pure water). It counts as physicochemical. The conditions noted are these: for RMW values, range: range over all plates (RP2F254, RP18F254, RP18WF254) and all mobile phases. As to the method:
Thin-layer chromatography aluminum plates (20 cm × 20 cm, 0.25 mm) precoated with silica gel RP18F254, and glass plates coated with silica gel RP18WF254 (20 cm × 10 cm) and silica gel RP2F254 (10 cm × 10 cm) were obtained from Merck (Darmstadt, Germany).
The chromatographic analysis was carried out according to the procedure described earlier on RP-TLC plates (RP2F254, RP18F254, RP18WF254) as a stationary phase using three different mobile phases. Five microliters of standard solutions of analytes were spotted onto the chromatographic plates. The chromatographic chamber 20 cm × 10 cm (Camag, Switzerland) was saturated with the mobile phase vapors for 20 min. The mobile phases were prepared by mixing appropriate organic modifiers (ethanol, propan-2-ol, acetonitrile) and water in different volume compositions. The content of the organic modifier in the mobile phase used was changed in the step of 5% (v/v) in the range of 30–90% v/v. Thus, the mobile phases used consisted of a suitable organic solvent and water mixed in the following volume compositions: 30:70; 35:65; 40:60; 45:55; 50:50; […]; 60:40; 65:35; 70:30; 75:25; 80:20; 85:15 and 90:10. Chromatograms were developed at room temperature (21 ± 1 °C) to the solvent distance of 7 cm. Next, the chromatograms were dried for 24 h at (21 ± 1 °C) in a fume cupboard. The detection of the studied compounds was carried out under a UV lamp at 254 nm (Camag, Muttenz, Switzerland). The values of Rf (retardation factor) are the average values of three independent measurements in each case.

On the set-up of series [2]: method as in ChemSpider / selleckchem.com. The conditions noted are these: ref ChemSpider / selleckchem.com, cited from earlier work; for Solubility in Water / logS: aqueous solubility.
Details of series [3]: method as in DrugBank. The conditions noted are these: n-octanol-water, ref DrugBank, cited from earlier work.
[4] abbreviates: RP2F254 plates, acetonitrile-water mobile phase.
Where [5] appears, read: RP2F254 plates, ethanol–water mobile phase.
The mark [6] stands for this setting: RP2F254 plates, propan-2-ol-water mobile phase.
Setting [7] is: RP18F254 plates, acetonitrile-water mobile phase.
[8] abbreviates: RP18F254 plates, ethanol–water mobile phase.
Setting [9] is: RP18F254 plates, propan-2-ol-water mobile phase.
Setting [10] is: RP18WF254 plates, acetonitrile-water mobile phase.
Where [11] appears, read: RP18WF254 plates, ethanol–water mobile phase.
Setting [12] is: RP18WF254 plates, propan-2-ol-water mobile phase.

Here are results for five compounds from paper PMC10059999, “Assessment of Lipophilicity Parameters of Antimicrobial and Immunosuppressive Compounds” (Molecules, 2023).

Converted amounts (≈) assume the structure as drawn. Like-named read-outs stand apart in the source and are kept apart here.

Regarding `CC(C)(O/N=C(\C(=O)N[C@@H]1C(=O)N2C(C(=O)[O-])=C(C[n+]3ccccc3)CS[C@H]12)c1csc(N)n1)C(=O)O` [Ceftazidime, ceftazidime], the RMW in series [1] (setting [4]) is given as −0.0357; in series [1] (setting [5]), −0.6643; in series [1] (setting [6]) it was −0.3642; in series [1] (setting [7]), 0.1462; in series [1] (setting [8]), −2.9545; in series [1] (setting [9]), 0.4691. The RMW is 0.4121 in series [1] (setting [10]), 0.4152 in series [1] (setting [11]) and 0.9153 in series [1] (setting [12]). Further, the “RMW values, range on RP2F254” value in series [1] (RP2F254 plates, range over the three mobile phases) was −0.0357 to −0.6643. In addition, in series [1], the “RMW values, range” value is −2.9545 to 0.9153. Further, the “Solubility in Water” value in series [2] is 5.73 µg/mL (≈ 10.5 µM). Further, the logS in series [2] is −5.0. Moreover, the “pKa (Strongest Acidic)” value in series [2] was 2.42. In addition, the “pKa (Strongest Basic)” value in series [2] is recorded as 4.02. Besides, the figures for the “logPexp (Experimental Value)” value in series [3] and in series [3] (listed as ceftazidime) were −1.60 and −1.6, respectively.

Turning to `Nc1nc(-n2cc(C(=O)O)c(=O)c3cc(F)c(N4CC(O)C4)c(Cl)c32)c(F)cc1F` [Delafloxacin, delafloxacin], the RMW is recorded as 0.6615 in series [1] (setting [4]); 0.9184 in series [1] (setting [5]); 0.7390 in series [1] (setting [6]); 2.3174 in series [1] (setting [7]); 2.1359 in series [1] (setting [8]); 1.7719 in series [1] (setting [9]). Also, the RMW in series [1] (setting [10]) is 1.8351; in series [1] (setting [11]) it was 1.9694; in series [1] (setting [12]), 1.6940. Besides, the “Solubility in Water” value in series [2] was 69.9 µg/mL (≈ 159 µM). In addition, the logS in series [2] is reported as −3.8. For the same compound, the “pKa (Strongest Acidic)” value in series [2] is 5.62. Moreover, the “pKa (Strongest Basic)” value in series [2] is −1.3.

As for `CO[C@H]1C[C@@H]2CC[C@@H](C)[C@@](O)(O2)C(=O)C(=O)N2CCCC[C@H]2C(=O)O[C@H]([C@H](C)C[C@@H]2CC[C@@H](OCCO)[C@H](OC)C2)CC(=O)[C@H](C)/C=C(\C)[C@@H](O)[C@@H](OC)C(=O)[C@H](C)C[C@H](C)/C=C/C=C/C=C/1C` [Everolimus, everolimus], the RMW is on record as 2.8557 in series [1] (setting [4]); 2.9460 in series [1] (setting [5]); 2.2145 in series [1] (setting [6]); 2.9462 in series [1] (setting [7]); 3.5637 in series [1] (setting [8]); 2.5865 in series [1] (setting [9]). Also, the RMW was 2.7737 in series [1] (setting [10]), 2.8227 in series [1] (setting [11]) and 2.5687 in series [1] (setting [12]). Also, the “RMW values, range” value in series [1] was 2.2145–3.5637. Besides, in series [2], the “Solubility in Water” value was 1.63 µg/mL (≈ 1.7 µM). Also, the logS in series [2] is given as −5.8. Also, the “pKa (Strongest Acidic)” value in series [2] was 9.96. Further, the “pKa (Strongest Basic)” value in series [2] is −2.7.

Take `CC(=O)NC[C@H]1CN(c2ccc(N3CCSCC3)c(F)c2)C(=O)O1` [Sutezolid, sutezolid]: the RMW in series [1] (setting [4]) is on record as 1.4312; in series [1] (setting [5]) it was 1.4334; in series [1] (setting [6]) it was 1.1590; in series [1] (setting [7]), 2.2114; in series [1] (setting [8]), 1.8680; in series [1] (setting [9]), 1.5937. Further, the figures for the RMW in series [1] (setting [10]), in series [1] (setting [11]) and in series [1] (setting [12]) were 2.0329, 1.9661 and 1.4784, respectively. Moreover, the “Solubility in Water” value in series [2] is 237 µg/mL (≈ 671 µM). Moreover, in series [2], the logS is −3.2. The “pKa (Strongest Acidic)” value in series [2] is 14.85. Moreover, the “pKa (Strongest Basic)” value in series [2] is −0.14.

For the compound `CO[C@H]1C[C@@H]2CC[C@@H](C)[C@@](O)(O2)C(=O)C(=O)N2CCCC[C@H]2C(=O)O[C@H]([C@H](C)C[C@@H]2CC[C@H](n3cnnn3)[C@H](OC)C2)CC(=O)[C@H](C)/C=C(\C)[C@@H](O)[C@@H](OC)C(=O)[C@H](C)C[C@H](C)/C=C/C=C/C=C/1C` [Zotarolimus, zotarolimus], the RMW in series [1] (setting [4]) is listed as 2.7480; in series [1] (setting [5]), 3.3623; in series [1] (setting [6]), 2.1522; in series [1] (setting [7]), 3.1252; in series [1] (setting [8]) it was 3.1105; in series [1] (setting [9]), 2.4741. Also, the results for the RMW in series [1] (setting [10]), in series [1] (setting [11]) and in series [1] (setting [12]) were 3.2300, 2.7377 and 2.7821, respectively. The “RMW values, range” value in series [1] is on record as 2.1522–3.3623.
